Consider 13 compounds from patent EP3102204B1 (The University Of Mississippi, priority 2014, dated 2015).

Structures are written as SMILES. Where two headings read alike, the source gives them in different places. A value given as a limit tells only on which side of the number the result lay.

The target in one series is T1, σ-2 (Rattus norvegicus, UniProt Q5U3Y7).
T1 construct: from tissue; host or cells: rat brain homogenate (membrane protein)
T1 sequence (Q5U3Y7 1-176): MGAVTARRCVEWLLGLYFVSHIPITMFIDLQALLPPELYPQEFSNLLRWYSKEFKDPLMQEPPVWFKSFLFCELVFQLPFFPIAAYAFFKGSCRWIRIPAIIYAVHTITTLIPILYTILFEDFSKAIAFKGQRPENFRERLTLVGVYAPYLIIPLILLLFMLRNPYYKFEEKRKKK
Nature of the series: σ receptor assay: σ-2 binding with [3H]DTG plus (+)-pentazocine. Particulars: for Ki: rat brain homogenates.

For series [1], the system named is Male, Swiss Webster mice. Description: Cocaine-induced convulsions. It counts as in vivo. The settings on record: pretreatment i.p. 15 min before cocaine 70 mg/kg i.p.
Series [2] relates to Male, Swiss Webster mice. Description: Development of cocaine-induced sensitization. Type of series: in vivo. The settings on record: pretreatment Days 1-5, cocaine 10 mg/kg i.p. The protocol: Male, Swiss Webster mice were acclimated as detailed above. […] The total locomotor activity (ambulatory, fine and rearing movements) of the mice was recorded for the next 30 min as the number of disruptions made by them in the 16x16 photobeam grids of their testing chamber on each of the five days. A 10 day drug-free period followed. On Day 15, all of the mice were pre-administered (i.p.) saline followed by cocaine (10mg/kg, i.p.), and locomotor activity quantified for the next 30 min.

Series [3] concerns Male, Swiss Webster mice. Nature of the series: Expression of cocaine-induced sensitization. Type of series: in vivo. The settings on record: compound on Day 15 before cocaine 10 mg/kg i.p. How it is done:
Male, Swiss Webster mice were acclimated as detailed above. For five consecutive days (Days 1-5), the mice were pretreated (i.p.) with saline, then challenged 15 min later with cocaine (10mg/kg, i.p.). The total locomotor activity (ambulatory, fine and rearing movements) of the mice was recorded for the next 30 min. A 10 day drug free period followed and on Day 15, the mice were administered saline (i.p.) or compound (0.1-20mg/kg), followed15 min later with cocaine (10mg/kg, i.p.). Locomotor activity was then recorded for the next 30 min.

For series [4], the system named is Male, Swiss Webster mice. Nature of the series: Cocaine-induced locomotor activity. Type of series: in vivo. The settings on record: pretreatment i.p. 15 min before cocaine 20 mg/kg i.p. How it is done:
Male, Swiss Webster mice were acclimated to the treatment room and then to the chambers of the automated activity monitoring system (San Diego Instruments, San Diego, CA). […] The total locomotor activity (ambulatory, fine and rearing movements) of the mice was recorded for the next 30 min as the number of disruptions made by them in the 16x16 photobeam grid of their testing chamber.

For series [5], the system named is Male, Swiss Webster mice. Description: Methamphetamine-induced locomotor activity. Particulars: pretreatment i.p. 15 min before methamphetamine 1 mg/kg i.p. Type of series: in vivo. The protocol: Male, Swiss Webster mice were acclimated as detailed above. […] The total locomotor activity (ambulatory, fine and rearing movements) of the mice was recorded for the next 30 min as the number of disruptions made by them in the 16x16 photobeam grids surrounding their testing chambers.

The target of the next series is T2, dopamine D2 receptors (Rattus norvegicus, UniProt P61169).
T2 construct: from tissue; host or cells: rat brain homogenate
Description: Non-σ competition binding assay, [3H](-)-sulpiride. The settings on record: rat brain homogenates. How it is done:
(§1) Compounds were tested at various non-σ target sites to evaluate selectivity because cocaine interacts with these sites (dopamine, serotonin and norepinephrine transporters) or historic "sigma" ligands interact with them (opioid, NMDA, dopamine D2, 5-HT2 receptors). The compounds were tested in competition binding assays using rat brain homogenates as previously published. […] The results were reported as Ki in nM.

Series [6] has as its system Male, Swiss Webster mice. Description: Methamphetamine-induced dopamine depletions. Type of series: in vivo. The settings on record: methamphetamine 5 mg/kg x 4 at 2 hr intervals; striatal dopamine one week later. How it is done:
Male, Swiss Webster mice were injected (i.p.) with saline or compound (0-20mg/kg), followed 15 min later with either saline (- METH) or methamphetamine (5mg/kg) at 2hr intervals, a total of four times. Striatal dopamine levels were measured one week later.

The target of the next series is 5-HT2 receptors. Description: Non-σ competition binding assay, [3H]ketanserin. The settings on record: rat brain homogenates. The protocol: as §1
For series [7], the target named is norepinephrine transporters. Description: Non-σ competition binding assay, [3H]nisoxetine. Particulars: rat brain homogenates; read-out: NET Ki. How it is done: as §1
In a further series the target is NMDA receptors. Description: Non-σ competition binding assay, [3H]TCP. The settings on record: rat brain homogenates. How it is done: as §1
The next series addresses serotonin transporters. Nature of the series: Non-σ competition binding assay, [3H]paroxetine. The settings on record: rat brain homogenates; read-out: SERT Ki. The protocol:
as §1

For another series, the target named is dopamine transporters. Nature of the series: Non-σ competition binding assay, [3H]WIN35,428. The settings on record: rat brain homogenates; read-out: DAT Ki. How it is done:
as §1

Series [8] is described as follows: in vitro. It counts as in vitro ADME, rat. The protocol:
Metabolic stability of AZ_66 (1µM) was performed in Ammonium acetate buffer (50mM, pH 7.4) with Rat liver microsomes (0.5mg) at 37 °C in 0.5ml of incubation mixture. The incubation mixture composed of Ammonium acetate buffer (50mM, pH 7.4), Magnesium chloride (3mM), a NADPH regenerating system consisting of NADP (1mM), glucose-6-phosphate (5mM), and glucose-6-phosphate dehydrogenase (1Unit/mL). The Substrate and microsomes were pre incubated at 37°C for 5 min before starting the reaction. The reactions were started by the addition of regenerating system and carried out at 37°C in a shaking water bath for 60min. The incubations were stopped by adding an equal volume of ice cold acetonitrile at predetermined time points (0, 5, 15, 30, 60 min). The samples were centrifuged for 10min at 4°C and the supernatant was injected into UPLC/MS/MS. Control incubation without NADPH was also performed and these served as 100% value. All microsomal incubations were conducted using the same lot of microsomes.
In vitro half-life and CLint: The percent of the parent compound remaining is plotted versus time. The slope of the line gives the rate constant k for the disappearance of parent compound, from which an in vitro t1/2 can be calculated. CLint can be calculated using the following formula CLint = k(min^−1) × ([V](L))/([P](mg)) = (L/mg×min) [formula] […]

In another series the target is σ-1 (Rattus norvegicus, UniProt Q9R0C9). Nature of the series: σ receptor assay: σ-1 binding with [3H](+)-pentazocine. The settings on record: rat brain homogenates; CM table.
In series [9] the test system is σ-1 receptor. Description: Cell uptake studies in transfected CHO cells. The settings on record: at 120 min.
Description: Control CHO cells (transfected with a vector not containing the σ-1 receptor gene - to serve as a negative control) and CHO cells transfected with a vector containing σ-1 receptor cDNA (to serve as a positive control for σ-1 receptor expression in cells) were used for the uptake assays. […] The incubated cells were subsequently washed, lysed and counted for radioactivity. All collected data were normalized for amount of protein present in each well.
Cells CHO cells were grown in Ham's F-12 medium. For uptake studies CHO cells were transfected using Lipofectamine 2000 (Invitrogen, Carlsbad, CA, USA) and either pcDNA (empty vector, negative control) or σ-1 receptor gene (OPRS1, accession number NM_005866.2, origin, Rockville, MD, USA) following manufacturer's directions. […] Twenty-four hours later, CHO cells were transfected with either 0.8 µg pcDNA (empty vector, control), or 0.8 µg sigma-1 DNA. […] A portion of each lysate (250 µL) was transferred to a glass tube and activity was measured with a Cobra II γ counter (Packard-Perkin Elmer, Waltham, MA, USA). Protein content from each well was measured by Bradford assay. The same protocol was followed for (+)-[^3H]pentazocine, except the activity was measured with a liquid scintillation counter (Beckman Coulter LS 6500, Brea, CA, USA).
For series [10] the following is noted: analytical reverse-phase HPLC.
Series [11] concerns the target σ-1 receptors (Mus musculus, UniProt O55242). Description: Small-animal PET imaging in mice (brain). It counts as in vivo.
Series [12] concerns σ-1 receptor. Particulars: cited from earlier work.
Series [13] concerns the target σ-1 receptors. Nature of the series: In vitro radioligand binding assays of CM304 at sigma receptors. Also noted: species or system rat. How it is done: Competition binding assays were performed as previously described. Briefly, radioligands were used to tag the targeted sites under standard conditions.
Series [14] can be described thus: in vitro. More on the design: dose or concentration left out as unconfirmed. Type of series: in vitro ADME. The settings on record: pH 7.4; mouse liver microsomes, NADPH-generating system, 37 °C. The protocol: The reaction was initiated by adding cofactors and quenched at designated time points (0, 5, 10, 15, 30, 45, 60 min) by the addition of an equal volume of ice-cold acetonitrile (ACN). […].
The basic incubation mixture consisted of 5 mM substrate, 1 mg/mL microsomal protein, 3 mM MgCl2, 1 mM NADP, 5 mM glucose-6-phosphate, 1 IU/mL glucose-6-phosphate dehydrogenase, 100 mM Tris HCl buffer (pH 7.4) in a final volume of 1 mL. The reaction was initiated by adding cofactors and quenched at designated time points (0, 5, 10, 15, 30, 45, 60 min) by addition of an equal volume of ice-cold ACN. The mixture was centrifuged at 3000 rpm for 10 min, and the supernatant was analyzed by UPLC/MS/MS.
A general note: Liver microsomes are a subcellular fraction often used to study metabolism.

Series [15] can be described thus: pKa by potentiometric titration. Type of series: physicochemical. The protocol: A solution of 0.01 M sodium hydroxide was prepared and the pH measured as 11.9. Similarly, 0.01 M hydrochloric acid solution was prepared and the pH measured as 2.07. […] To the same sample, 0.1 mL portions of hydrochloric acid were added and pH recorded until it became constant. A titration curve was then plotted as pH versus the volume of base/acid added.

σ-1, sequence (Q9R0C9 whole entry): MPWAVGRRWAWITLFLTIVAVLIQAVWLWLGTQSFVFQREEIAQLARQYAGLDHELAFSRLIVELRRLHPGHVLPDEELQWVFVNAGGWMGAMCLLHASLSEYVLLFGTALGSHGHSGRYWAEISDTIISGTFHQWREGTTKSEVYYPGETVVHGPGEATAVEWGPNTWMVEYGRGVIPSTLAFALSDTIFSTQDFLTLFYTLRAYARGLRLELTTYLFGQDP
σ-1 receptors (Mus musculus, UniProt O55242), sequence (O55242 whole entry): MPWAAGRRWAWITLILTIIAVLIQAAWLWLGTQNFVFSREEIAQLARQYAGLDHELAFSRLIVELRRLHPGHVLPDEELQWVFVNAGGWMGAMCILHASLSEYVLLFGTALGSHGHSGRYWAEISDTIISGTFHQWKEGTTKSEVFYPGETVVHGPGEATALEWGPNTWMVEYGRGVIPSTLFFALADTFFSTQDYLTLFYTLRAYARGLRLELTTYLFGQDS
T2 sequence (P61169 whole entry): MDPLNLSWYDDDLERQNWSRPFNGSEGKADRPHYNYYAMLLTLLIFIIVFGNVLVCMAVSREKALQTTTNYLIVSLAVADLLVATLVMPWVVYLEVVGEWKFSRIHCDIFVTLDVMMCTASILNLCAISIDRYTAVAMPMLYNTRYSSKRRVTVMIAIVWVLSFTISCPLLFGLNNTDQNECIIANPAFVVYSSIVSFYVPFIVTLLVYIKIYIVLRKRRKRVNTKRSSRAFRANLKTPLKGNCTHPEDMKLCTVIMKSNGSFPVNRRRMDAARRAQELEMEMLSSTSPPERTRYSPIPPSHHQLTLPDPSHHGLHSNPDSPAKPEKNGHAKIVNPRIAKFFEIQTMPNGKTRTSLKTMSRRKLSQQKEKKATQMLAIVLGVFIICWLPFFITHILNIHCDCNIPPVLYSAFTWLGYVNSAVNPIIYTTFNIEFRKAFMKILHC
Description for σ-2: Compounds were evaluated for σ -1 and σ -2 binding in rat brain homogenates. […] The assays were terminated with ice-cold 10 mM Tris-HCl, pH 8.0, followed by two washes through glass fiber filters that were pre-soaked for at least 30 min in 0.5% polyethyleneimine.

Broadly, the Ki is the equilibrium dissociation constant of an inhibitor or competing ligand from its target. As for `CC(=O)c1ccc2c(c1)oc(=O)n2CCCCN1CCN(c2ccc(F)cc2)CC1` [SN-79], at σ-2 (SN table, read-out: Ki (nM) σ2), the Ki is 6.06 nM. The “attenuation of cocaine-induced convulsions” value in the series with Male, Swiss Webster mice [1] is reported as “significant attenuation”. Moreover, the “development of cocaine-induced sensitization” value with Male, Swiss Webster mice [2] is given as “attenuates the development of cocaine-induced sensitization”. For the same compound, in the series on Male, Swiss Webster mice [3], the “expression of cocaine-induced sensitization (behavioral sensitization)” value is “attenuates the expression of cocaine-induced sensitization”. Further, the “attenuation of cocaine-induced locomotor activity” value with Male, Swiss Webster mice [4] is recorded as “significant attenuation”.
For the compound `O=c1oc2ccccc2n1CCCCN1CCN(C2CCCCC2)CC1` [CM 121], the “preference (selectivity) for the σ-2 subtype” value on σ-2 (σ-2 over σ-1) is given as “six fold”.
Consider `S=c1sc2ccccc2n1CCCCN1CCN(C2CCCCC2)CC1` [CM156], for which, in the series with Male, Swiss Webster mice [5], the “locomotor stimulant effects of methamphetamine” value is recorded as “attenuated”. Besides, the Ki is 1041 ± 9 nM at dopamine D2 receptors; 1330 ± 159 nM at 5-HT2 receptors; above 10000 nM in series [7]; above 10000 nM on NMDA receptors; 1400 ± 152 nM at serotonin transporters; 1175 ± 10 nM at dopamine transporters. The “neurotoxic effects resulting from methamphetamine exposures (dopamine depletions)” value in the series with Male, Swiss Webster mice [6] is “attenuated”. For the same compound, the “attenuation of cocaine-induced convulsions” value in the series with Male, Swiss Webster mice [1] is listed as “significant attenuation”. Besides, the “expression of cocaine-induced sensitization (behavioral sensitization)” value in the series with Male, Swiss Webster mice [3] is reported as “significant attenuation”. Besides, the “attenuation of cocaine-induced locomotor activity” value in the series on Male, Swiss Webster mice [4] was “significant attenuation”.
In the case of `CC(CCCn1c(=O)sc2cc(F)ccc21)N1CCN(C2CCCCC2)CC1` (stereo not shown) [AZ_66], the “loss of substrate in the absence of cofactor” value in “in vitro [8]” (control incubation without NADPH) was “no loss of substrate”. Also, the metabolised at 1 h, 1 µM in the series “in vitro [8]” (rat, microsomes, pH 7.4, by 60 min, read-out: added substrate metabolized by microsomes) is around 25%.
The compound `Fc1ccc(-c2cn(CCCCN3CCN(c4ccc(F)cc4)CC3)c3ccccc23)cc1` [CM 350] displayed a Ki at σ-1 of 1200 ± 73.9 nM.
For the compound `O=c1sc2cc(CCC[18F])ccc2n1CCN1CCCCCC1` [[^18F]FTC-146, 6-(3-fluoropropyl) -3-(2-(azapan-1-yl)ethyl) benzo [d] thiazol-2 (3H) -one], the “uptake in cells transfected with σ-1 receptor cDNA versus control CHO cells” value with σ-1 receptor [9] is on record as 4 fold. The “stability of formulated version in saline/ethanol (9:1)” value in [10] was “at least 5.5 hours”. Also, the “reduction of [18F]FTC-146 binding in the brain” value at σ-1 receptors [11] (at 60 min, pre-treatment with CM304 1 mg/kg 10 minutes prior to radioligand) is given as 83%. On σ-1 receptors [11] (mouse, brain, iv, read-out: maximum uptake in brain), the tissue uptake is around 17 %ID/g.
Regarding `O=c1sc2ccccc2n1CCCCN1CCN(C2CCCCC2)CC1` [CM 145], the inhibitory constant (Ki) at σ-2 (CM table, read-out: Ki (nM) […]2) came to 0.39 ± 0.06 nM.
Still for that read-out and setting: under `Cn1c(=O)n(CCCCN2CCN(C3CCCCC3)CC2)c2ccccc21` [CM 396] stands 2.57 ± 0.47 nM; under `c1ccc2c(c1)ccn2CCCCN1CCN(C2CCCCC2)CC1` [CM 341], 1.9 ± 0.16 nM.
With `Fc1ccc(-c2cn(CCCCN3CCN(C4CCCCC4)CC3)c3ccccc23)cc1` [CM 349], the Ki on σ-2 (CM table, read-out: Ki (nM) […]2) is 22.6 ± 1.13 nM; on σ-1, 90.9 ± 12.3 nM.
For `[17F]CCC1OC2(CCN(Cc3ccccc3)CC2)c2ccccc21` (stereo not shown) [[^18F]fluspidine], in the series with σ-1 receptor [12] (at 60 minutes post injection), the “brain level relative to its maximum” value is listed as 81%. Further, in the series on σ-1 receptor [12] (biodistribution in mice, over 2 hours), the “reduction in brain uptake” value is given as 40%. In the series on σ-1 receptor [12] (post injection), the “time of maximum uptake in the brain” value was 30 min.
Take `CC(C)=CCN1CC[C@]2(C)c3cc(O)ccc3C[C@H]1[C@H]2C` [(+)-[^3H] pentazocine, reference compound]: in the series on σ-1 receptor [9], the “uptake in cells transfected with σ-1 receptor cDNA versus control CHO cells” value is recorded as 3.6 fold.
What is called half-life is the time needed for the level to fall by half in the phase considered. Regarding `Cl.O=c1sc2cc(CCCF)ccc2n1CCN1CCCCCC1` [CM304, 3-(2-(azepan-1-yl)ethyl)-6-(3-fluoropropyl)benzo[d]thiazol-2(3H)-one hydrochloride], the Ki on σ-1 receptors [13] stood at 0.0025 nM. Also, the “attenuation of cocaine-induced convulsions” value in the series with Male, Swiss Webster mice [1] is “significantly attenuated”. Moreover, the half-life in “in vitro [14]” turned out to be 4.2 min. In addition, in series [15], the “experimental pKa” value came out at 10.4.
